The text below walks through data of patent publication US9023789B2, “Amylin analogs and pharmaceutical compositions thereof” (Novo Nordisk A/S, priority 2012, dated 2015).

A short description of data set [1]: ASSAY (IV) determination of solubility. The class given is physicochemical. An outline of the steps: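 Dissolve polypeptide in water ([…] stock); combine 1:1 with each 100 mM buffer (glycylglycine pH 3.0/4.0/5.0; bistrispropane pH 6.0/6.5/7.0/7.5/8.0); hold 18 hours at room temperature; centrifuge; quantify polypeptide by UPLC.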
The nature of data set [2]: ASSAY (III) ThT fibrillation assay for physical stability. The class given is physicochemical. The procedure, abridged:
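Formulations with 1 μM ThT, pH adjusted as required, incubated at 37 °C with 960 rpm orbital shaking; fluorescence (ex 444/em 485 nm) read every 20 min. Fibrillation reported as mean ThT fluorescence ± SD of 4–8 replicates at time points; polypeptide concentration measured by reverse-phase HPLC before and after, post-centrifugation.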

[3] abbreviates: bistrispropane buffer, pH 6.5, read-out: Solubility pH 6.5 Concentration.
The mark [4] stands for this setting: bistrispropane buffer, pH 7.5, read-out: Solubility pH 7.5 Concentration.
The mark [5] stands for this setting: bistrispropane buffer, pH 6.0, read-out: Solubility pH 6.0 Concentration.
The mark [6] stands for this setting: bistrispropane buffer, pH 7.0, read-out: Solubility pH 7.0 Concentration.
[7] abbreviates: bistrispropane buffer, pH 8.0, read-out: Solubility pH 8.0 Concentration.
The mark [8] stands for this setting: glycylglycine buffer, pH 3.0, read-out: Solubility pH 3.0 Concentration.
The mark [9] stands for this setting: glycylglycine buffer, pH 4.0, read-out: Solubility pH 4.0 Concentration.
Where [10] appears, read: glycylglycine buffer, pH 5.0, read-out: Solubility pH 5.0 Concentration.

Values after ≈ are worked out from the molar mass of the structure shown. Read-outs that look alike come from different tables or passages of the source. Numbered stars: 1 amine (or outer) side, 2 acyl side, 3 side chain; on linkers, the order of the positions; unused ones are H or OH. Bridge positions count the residues as written; N and C are the ends. Side chains are listed from the residue outwards. Peptide text beside a SMILES is read from it. * marks the point of attachment. C20 diacid = O=C(O)CCCCCCCCCCCCCCCCCCC(=O)*; γGlu = O=C(O)[C@H](CCC(=O)[*:2])N[*:1]

With `CC[C@H](C)[C@H](NC(=O)[C@H](C)NC(=O)CNC(=O)[C@H](Cc1ccccc1)NC(=O)[C@H](CC(N)=O)NC(=O)[C@@H]1CCCN1C(=O)[C@H](CO)NC(=O)[C@H](CO)NC(=O)[C@H](Cc1c[nH]cn1)NC(=O)[C@H](CCCNC(=N)N)NC(=O)[C@H](CC(C)C)NC(=O)[C@H](Cc1ccccc1)NC(=O)[C@H](CCC(=O)O)NC(=O)[C@H](C)NC(=O)[C@H](CC(C)C)NC(=O)[C@H](CCCNC(=N)N)NC(=O)[C@H](CCC(N)=O)NC(=O)[C@@H](NC(=O)[C@H](C)NC(=O)[C@@H]1CSSC[C@H](NC(=O)[C@H](CCCCN)NC(=O)CC[C@H](NC(=O)CCCCCCCCCCCCCCCCCCC(=O)O)C(=O)O)C(=O)N[C@@H](CC(N)=O)C(=O)N[C@@H]([C@@H](C)O)C(=O)N[C@@H](C)C(=O)N[C@@H]([C@@H](C)O)C(=O)N1)[C@@H](C)O)C(=O)N[C@@H](CC(C)C)C(=O)N1CCC[C@H]1C(=O)N[C@@H](CO)C(=O)N[C@H](C(=O)N[C@@H](CC(N)=O)C(=O)N[C@H](C(=O)NCC(=O)N[C@@H](CO)C(=O)N[C@@H](CCC(=O)O)C(=O)N[C@H](C(=O)N[C@@H](Cc1ccc(O)cc1)C(N)=O)[C@@H](C)O)C(C)C)[C@@H](C)O` [Example 33] ({C20 diacid-γGlu}-KCNTATCATQRLAEFLRHSSPNFGAILPSTNVGSETY-NH2; disulfide 2-7), the solubility at 18 h in data set [1] (setting [3]), in data set [1] (setting [4]), in data set [1] (setting [5]), in data set [1] (setting [6]), in data set [1] (setting [7]) and in data set [1] (setting [8]) was at least 200 µM in each case. For the same molecule, the solubility at 18 h in data set [1] (setting [9]) and in data set [1] (setting [10]) was at least 200 µM in each case. Further, the “ThT pH 4.0 lag time (h)” value in data set [2] is recorded as 9 h.
As to `CC[C@H](C)[C@H](NC(=O)[C@H](C)NC(=O)CNC(=O)[C@H](Cc1ccccc1)NC(=O)[C@H](CC(N)=O)NC(=O)[C@@H]1CCCN1C(=O)[C@H](CO)NC(=O)[C@H](CO)NC(=O)[C@H](Cc1c[nH]cn1)NC(=O)[C@H](CCCNC(=N)N)NC(=O)[C@H](CC(C)C)NC(=O)[C@H](Cc1ccccc1)NC(=O)[C@H](C)NC(=O)[C@H](C)NC(=O)[C@H](CC(C)C)NC(=O)[C@H](CCCNC(=N)N)NC(=O)[C@H](CCC(N)=O)NC(=O)[C@@H](NC(=O)[C@H](C)NC(=O)[C@@H]1CSSC[C@H](NC(=O)[C@H](CCCNC(=N)N)NC(=O)CNC(=O)CC[C@H](NC(=O)CCCCCCCCCCCCCCCCCCC(=O)O)C(=O)O)C(=O)N[C@@H](CC(N)=O)C(=O)N[C@@H]([C@@H](C)O)C(=O)N[C@@H](C)C(=O)N[C@@H]([C@@H](C)O)C(=O)N1)[C@@H](C)O)C(=O)N1CCC[C@H]1C(=O)N[C@@H](CO)C(=O)N[C@@H](CO)C(=O)N[C@H](C(=O)N[C@@H](CC(N)=O)C(=O)N[C@H](C(=O)NCC(=O)N1CCC[C@H]1C(=O)N[C@@H](CC(N)=O)C(=O)N[C@H](C(=O)N[C@@H](Cc1ccc(O)cc1)C(N)=O)[C@@H](C)O)C(C)C)[C@@H](C)O` [Example 103] ({C20 diacid-γGlu}-GRCNTATCATQRLAAFLRHSSPNFGAIPSSTNVGPNTY-NH2; disulfide 3-8), the solubility at 18 h in data set [1] (pH 3.0, read-out: Solubility pH 3.0 Concentration) is at least 200 µM; in data set [1] (pH 4.0, read-out: Solubility pH 4.0 Concentration), at least 200 µM; in data set [1] (pH 5.0, read-out: Solubility pH 5.0 Concentration), at least 200 µM; in data set [1] (pH 6.0, read-out: Solubility pH 6.0 Concentration) it was at least 200 µM; in data set [1] (pH 6.5, read-out: Solubility pH 6.5 Concentration), at least 200 µM; in data set [1] (pH 7.0, read-out: Solubility pH 7.0 Concentration) it was at least 200 µM. Also, the solubility at 18 h in data set [1] (pH 7.5, read-out: Solubility pH 7.5 Concentration) was 141 µM (≈ 625 µg/mL); in data set [1] (pH 8.0, read-out: Solubility pH 8.0 Concentration), 194 µM (≈ 860 µg/mL). For the same molecule, in data set [2], the “ThT pH 4.0 lag time (h)” value amounted to 45 h.
On to `CC[C@H](C)[C@H](NC(=O)[C@H](C)NC(=O)CNC(=O)[C@H](Cc1ccccc1)NC(=O)[C@H](CC(N)=O)NC(=O)[C@@H]1CCCN1C(=O)[C@H](CO)NC(=O)[C@H](CO)NC(=O)[C@H](Cc1c[nH]cn1)NC(=O)[C@H](CCCNC(=N)N)NC(=O)[C@H](CC(C)C)NC(=O)[C@H](Cc1ccccc1)NC(=O)[C@H](Cc1c[nH]cn1)NC(=O)[C@H](C)NC(=O)[C@H](CC(C)C)NC(=O)[C@H](CCCNC(=N)N)NC(=O)[C@H](CCC(N)=O)NC(=O)[C@@H](NC(=O)[C@H](C)NC(=O)[C@@H]1CSSC[C@H](NC(=O)[C@@H](N)CCCCNC(=O)CC[C@H](NC(=O)CCCCCCCCCCCCCCCCCCC(=O)O)C(=O)O)C(=O)N[C@@H](CC(N)=O)C(=O)N[C@@H]([C@@H](C)O)C(=O)N[C@@H](C)C(=O)N[C@@H]([C@@H](C)O)C(=O)N1)[C@@H](C)O)C(=O)N1CCC[C@H]1C(=O)N[C@@H](CO)C(=O)N[C@@H](CO)C(=O)N[C@H](C(=O)N[C@@H](CC(N)=O)C(=O)N[C@H](C(=O)NCC(=O)N1CCC[C@H]1C(=O)N[C@@H](CC(N)=O)C(=O)N[C@H](C(=O)N1CCC[C@H]1C(N)=O)[C@@H](C)O)C(C)C)[C@@H](C)O` [Example 115] (H-K([γGlu-C20 diacid])CNTATCATQRLAHFLRHSSPNFGAIPSSTNVGPNTP-NH2; disulfide 2-7 (inferred); N-terminus assumed), for which the solubility at 18 h in data set [1] (setting [3]), in data set [1] (setting [4]), in data set [1] (setting [5]), in data set [1] (setting [6]), in data set [1] (setting [7]) and in data set [1] (setting [8]) was at least 200 µM in each case. In addition, the solubility at 18 h in data set [1] (setting [9]) and in data set [1] (setting [10]) was at least 200 µM throughout. The “ThT pH 4.0 lag time (h)” value in data set [2] is 45 h.
As for `CC[C@H](C)[C@H](NC(=O)[C@H](C)NC(=O)CNC(=O)[C@H](Cc1ccccc1)NC(=O)[C@H](CC(N)=O)NC(=O)[C@@H]1CCCN1C(=O)[C@H](CO)NC(=O)[C@H](CO)NC(=O)[C@H](Cc1c[nH]cn1)NC(=O)[C@H](CCCNC(=N)N)NC(=O)[C@H](CC(C)C)NC(=O)[C@H](Cc1ccccc1)NC(=O)[C@H](CCC(=O)O)NC(=O)[C@H](C)NC(=O)[C@H](CC(C)C)NC(=O)[C@H](CCCNC(=N)N)NC(=O)[C@H](CCC(N)=O)NC(=O)[C@@H](NC(=O)[C@H](C)NC(=O)[C@@H]1CSSC[C@H](NC(=O)[C@H](CCCCN)NC(=O)CC[C@H](NC(=O)CC[C@H](NC(=O)CCCCCCCCCCCCCCCCCCC(=O)O)C(=O)O)C(=O)O)C(=O)N[C@@H](CC(N)=O)C(=O)N[C@@H]([C@@H](C)O)C(=O)N[C@@H](C)C(=O)N[C@@H]([C@@H](C)O)C(=O)N1)[C@@H](C)O)C(=O)N1CCC[C@H]1C(=O)N[C@@H](CO)C(=O)N[C@@H](CO)C(=O)N[C@H](C(=O)N[C@@H](CC(N)=O)C(=O)N[C@H](C(=O)NCC(=O)N[C@@H](CO)C(=O)N[C@@H](CC(N)=O)C(=O)N[C@H](C(=O)N[C@@H](Cc1ccc(O)cc1)C(N)=O)[C@@H](C)O)C(C)C)[C@@H](C)O` [Example 15] ({C20 diacid-γGlu-γGlu}-KCNTATCATQRLAEFLRHSSPNFGAIPSSTNVGSNTY-NH2; disulfide 2-7 (inferred)), the solubility at 18 h in data set [1] (setting [3]), in data set [1] (setting [4]), in data set [1] (setting [5]), in data set [1] (setting [6]), in data set [1] (setting [7]) and in data set [1] (setting [8]) was at least 200 µM each time. Moreover, the solubility at 18 h in data set [1] (setting [9]) and in data set [1] (setting [10]) was at least 200 µM in each case. Moreover, the “ThT pH 4.0 lag time (h)” value in data set [2] came to 45 h.
For `CC[C@H](C)[C@H](NC(=O)[C@H](C)NC(=O)CNC(=O)[C@H](Cc1ccccc1)NC(=O)[C@H](CC(N)=O)NC(=O)[C@@H]1CCCN1C(=O)[C@H](CO)NC(=O)[C@H](CO)NC(=O)[C@H](Cc1c[nH]cn1)NC(=O)[C@H](CCCNC(=N)N)NC(=O)[C@H](CC(C)C)NC(=O)[C@H](Cc1ccccc1)NC(=O)[C@H](CC(N)=O)NC(=O)[C@H](C)NC(=O)[C@H](CC(C)C)NC(=O)[C@H](CCCNC(=N)N)NC(=O)[C@H](CCC(N)=O)NC(=O)[C@@H](NC(=O)[C@H](C)NC(=O)[C@@H]1CSSC[C@H](NC(=O)[C@@H](N)CCCCNC(=O)CC[C@H](NC(=O)CCCCCCCCCCCCCCCCCCC(=O)O)C(=O)O)C(=O)N[C@@H](CC(N)=O)C(=O)N[C@@H]([C@@H](C)O)C(=O)N[C@@H](C)C(=O)N[C@@H]([C@@H](C)O)C(=O)N1)[C@@H](C)O)C(=O)N1CCC[C@H]1C(=O)N[C@@H](CO)C(=O)N[C@@H](CO)C(=O)N[C@H](C(=O)N[C@@H](CC(N)=O)C(=O)N[C@H](C(=O)NCC(=O)N[C@@H](CO)C(=O)N[C@@H](CCC(=O)O)C(=O)N[C@H](C(=O)N[C@@H](Cc1ccc(O)cc1)C(N)=O)[C@@H](C)O)C(C)C)[C@@H](C)O` [Example 27], the solubility at 18 h in data set [1] (setting [3]), in data set [1] (setting [4]), in data set [1] (setting [5]), in data set [1] (setting [6]), in data set [1] (setting [7]) and in data set [1] (setting [8]) was at least 200 µM throughout. Moreover, the solubility at 18 h in data set [1] (setting [9]) and in data set [1] (setting [10]) was at least 200 µM throughout. For the same molecule, in data set [2], the “ThT pH 4.0 lag time (h)” value was determined as 28 h.
